According to patent US20230416224A1, “PROCESSES FOR PREPARING ARIMOCLOMOL CITRATE AND INTERMEDIATES THEREOF” (ZEVRA DENMARK A/S, priority 2020, published 2023):

Legend:
[1] = Particle size distribution of ORZY-05 by static automated imaging (Morphologi 4); format: physicochemical; details: ORZY-05 particles
Description: The materials and methods were essentially as in Example 7. In the present example, the cooling time of the cooling step of from 30° C. to 0° C. subsequent to addition of acetone was varied and its influence on the particle size of ORZY-05 was determined. The cooling time is a measure of how long it takes to reach 0° C. from 30° C. The particle size distribution (PSD) data shown in Table 3 were acquired using static automated imaging (Morphology 4).
Morphologi 4: The Particle size distribution of Arimoclomol citrate (ORZY-05) was also measured using a Malvern Morphologi 4 equipment.
Wet measurement was used for the needle shaped particles. […] Measurements were made using a thin path wet cell (75*75 mm). Samples were prepared by adding 20 mL of dispersant to 10 mg of API, followed by 30 s of stirring and 2 min of sonication in order to break the agglomerates. A microscope magnifier of X10 or X20 was used, and segmentation sharp edge and/or thresholding was used to improve the focus microscope focus.

[2] = Particle size distribution of ORZY-05 by Malvern Mastersizer 3000; format: physicochemical; details: ORZY-05 particles, Malvern Mastersizer 3000, volume distribution
Description: Further batches of ORZY-05 were prepared essentially as in Example 7 and the ORZY-05 particles were examined using Malvern Mastersizer 3000 as described in Example 11.
Malvern Mastersizer 3000: Particle size distribution of Arimoclomol citrate (ORZY-05) was determined by light scattering using a Malvern Mastersizer 3000 particle size analyzer (Malvern Instruments Ltd, Grovewood Road, Malvern, Worcestershire WR14 1XZ, United Kingdom) with a Hydro MV wet-dispersion unit attached. 2-Propanol with 1.8 g/L SPAN-85 additive was used as a dispersion medium (“dispersant”) and added to the dispersion unit. Prior to sample addition, the background counts of the system were determined by circulating the dispersant through the measurement cell under measurement conditions (2500 rpm stirrer speed). Samples for analysis were prepared by adding a suitable amount of Arimoclomol citrate to a 10 mL vial and pre-dispersing it with dispersant under light agitation for a few seconds. The pre-dispersed sample was then pipetted into the Hydro MV dispersion unit filled with dispersant to meet a laser obscuration range of 10-15%. A single-use PE pipette was used for this and representative sampling from the 10 mL vial was ensured by continuous agitation. […] Volume distributions were obtained and the D10, D50 and D90 were calculated from these distributions and reported. For each sample, a single sample preparation was analyzed using red light measurement only. Upon measurement completion, the sample cell was emptied and cleaned.

SMILES | Number CE Diameter D10 [1] [μm] | Number CE Diameter D50 [1] [μm] | Number CE Diameter D90 [1] [μm] | Number CE Diameter Mean [1] [μm] | Number Length D10 [1] [μm] | Number Length D50 [1] [μm] | Number Length D90 [1] [μm] | Volume CE Diameter D10 [1] [μm] | Volume CE Diameter D50 [1] [μm] | Volume CE Diameter D90 [1] [μm] | Volume CE diameter D[3,2] [1] [μm] | Volume CE diameter D[4,3] [1] [μm] | D10 [2] [μm] | D50 [2] [μm] | D90 [2] [μm]
O=C(O)CC(O)(CC(=O)O)C(=O)O.[O-][n+]1cccc(/C(Cl)=N/OC[C@H](O)CN2CCCCC2)c1 [17-001, arimoclomol citrate] | 0.60 | 1.60 | 9.40 | 3.70 | 1.70 | 4.70 | 22.00 | 9.40 | 24.70 | 44.40 | 17.70 | 25.70 | – | – | –
O=C(O)CC(O)(CC(=O)O)C(=O)O.[O-][n+]1cccc(/C(Cl)=N/OC[C@H](O)CN2CCCCC2)c1 [17-002, arimoclomol citrate] | 0.70 | 2.20 | 7.40 | 3.40 | 1.10 | 3.20 | 13.90 | 6.20 | 14.00 | 35.00 | 11.40 | 17.10 | – | – | –
O=C(O)CC(O)(CC(=O)O)C(=O)O.[O-][n+]1cccc(/C(Cl)=N/OC[C@H](O)CN2CCCCC2)c1 [17-003, arimoclomol citrate] | 1.00 | 2.00 | 5.80 | 2.90 | 1.40 | 3.20 | 10.50 | 4.60 | 11.10 | 26.70 | 8.80 | 13.70 | – | – | –
O=C(O)CC(O)(CC(=O)O)C(=O)O.[O-][n+]1cccc(/C(Cl)=N/OC[C@H](O)CN2CCCCC2)c1 [17-004, arimoclomol citrate] | 0.80 | 2.00 | 23.50 | 6.70 | 1.50 | 4.00 | 40.70 | 24.60 | 38.90 | 52.20 | 34.20 | 38.80 | – | – | –
O=C(O)CC(O)(CC(=O)O)C(=O)O.[O-][n+]1cccc(/C(Cl)=N/OC[C@H](O)CN2CCCCC2)c1 [18-001, arimoclomol citrate] | 0.80 | 2.50 | 10.70 | 4.60 | 1.80 | 4.10 | 16.80 | 11.20 | 26.40 | 37.60 | 19.50 | 25.40 | – | – | –
O=C(O)CC(O)(CC(=O)O)C(=O)O.[O-][n+]1cccc(/C(Cl)=N/OC[C@H](O)CN2CCCCC2)c1 [18-002, arimoclomol citrate] | 0.90 | 2.20 | 10.10 | 4.20 | 1.50 | 3.60 | 16.60 | 10.90 | 22.70 | 36.00 | 17.90 | 23.30 | – | – | –
O=C(O)CC(O)(CC(=O)O)C(=O)O.[O-][n+]1cccc(/C(Cl)=N/OC[C@H](O)CN2CCCCC2)c1 [18-003, arimoclomol citrate] | 4.40 | 21.80 | 38.20 | 22.10 | 8.00 | 29.90 | 56.10 | 24.00 | 37.60 | 58.30 | 35.40 | 41.10 | – | – | –
O=C(O)CC(O)(CC(=O)O)C(=O)O.[O-][n+]1cccc(/C(Cl)=N/OC[C@H](O)CN2CCCCC2)c1 [18-004, arimoclomol citrate] | 3.70 | 12.00 | 29.20 | 14.90 | 5.30 | 15.40 | 40.00 | 19.40 | 39.80 | 81.20 | 33.90 | 45.90 | – | – | –
O=C(O)CC(O)(CC(=O)O)C(=O)O.[O-][n+]1cccc(/C(Cl)=N/OC[C@H](O)CN2CCCCC2)c1 [compound 1001, arimoclomol citrate] | 2.41 | 5.28 | 17.81 | 8.16 | 2.90 | 7.03 | 26.69 | 13.10 | 25.95 | 47.14 | 21.77 | 29.46 | 7.00 | 21.00 | 63.00
O=C(O)CC(O)(CC(=O)O)C(=O)O.[O-][n+]1cccc(/C(Cl)=N/OC[C@H](O)CN2CCCCC2)c1 [compound 2001, arimoclomol citrate] | – | – | – | – | – | – | – | – | – | – | – | – | 17.2 | 47.2 | 112
O=C(O)CC(O)(CC(=O)O)C(=O)O.[O-][n+]1cccc(/C(Cl)=N/OC[C@H](O)CN2CCCCC2)c1 [compound 2002, arimoclomol citrate] | – | – | – | – | – | – | – | – | – | – | – | – | 4.33 | 12.5 | 37.9
O=C(O)CC(O)(CC(=O)O)C(=O)O.[O-][n+]1cccc(/C(Cl)=N/OC[C@H](O)CN2CCCCC2)c1 [compound 2003, arimoclomol citrate] | – | – | – | – | – | – | – | – | – | – | – | – | 4.65 | 13.5 | 40.7
O=C(O)CC(O)(CC(=O)O)C(=O)O.[O-][n+]1cccc(/C(Cl)=N/OC[C@H](O)CN2CCCCC2)c1 [compound 2004, arimoclomol citrate] | – | – | – | – | – | – | – | – | – | – | – | – | 10.2 | 34.8 | 87
O=C(O)CC(O)(CC(=O)O)C(=O)O.[O-][n+]1cccc(/C(Cl)=N/OC[C@H](O)CN2CCCCC2)c1 [compound 2005, arimoclomol citrate] | – | – | – | – | – | – | – | – | – | – | – | – | 11.2 | 35.6 | 82.6
O=C(O)CC(O)(CC(=O)O)C(=O)O.[O-][n+]1cccc(/C(Cl)=N/OC[C@H](O)CN2CCCCC2)c1 [compound 2006, arimoclomol citrate] | – | – | – | – | – | – | – | – | – | – | – | – | 11.6 | 35.6 | 77.7
